# “Also recorded” adds a separate entry of the source.
# What was measured:
# Assay type in all cases: cell-based
# [1] = test system: Staphylococcus aureus (ATCC 6538); assay: Microbicidal activity against Staphylococcus aureus (suspension test, surviving CFU)
# Description: Bacterial suspensions, specifically Staphylococcus aureus (ATCC 6538) in this example, were prepared by the shake flask method to achieve late log to early stationary phase growth. Bacteria were grown 24 hours in trypticase soy broth (TSB) at 35° C. The cultures were centrifuged at 4,000 rpm for 10 minutes and the supernatants removed. The pellet was collected and washed twice with sterile 0.9% normal saline. The washed microorganisms were suspended and diluted with normal saline to a 3 McFarland standard, i.e., approximately 10^9 bacteria colony forming units (CFU) per ml. Actual colony counts are confirmed by serial dilutions (10^−1 to 10^−5 or 10^−6) plated on trypticase soy agar (TSA) and incubated overnight at 35° C. One hundred microliters of organisms from a stock of 10^7 CFU/ml were used to obtain an approximate final working target inoculum of 10^6 CFU. The microbicidal test is conducted in a vial containing 1.4 ml of final reaction mixture after neutralization.
# (§1) Each solution was used alone for the individual controls. Organism suspensions were used to achieve a final target concentration of 2-3×10^6 CFU per ml. For the binary system treatments, sodium hypochlorite solution and hydrogen peroxide solution, non-acidified or acidified, were sequentially added to the microorganisms. Acidified hydrogen peroxide solution was obtained by the addition of 1.0% v/v of 0.001 N hydrochloride solution. After each addition, the resulting mixture was allowed to remain in contact with the organisms for a set amount of time at room temperature (about 22° C.), as listed in the Tables 1 and 2. At the end of the treatment time, the mixtures were neutralized with 200 to 500 microliters of thiosulfate solution (2.4%) to quench the activity of sodium hypochlorite and then treated with 100 to 200 microliters of a 1% catalase solution, containing a minimum of 100 units/ul, to quench the hydrogen peroxide activity. If needed, an appropriate volume of sterile saline was added to bring the final volume of reaction mixture to 1.4 ml after neutralization. Serial dilution plate counts were performed from the contents of each vial in sterile saline and inoculated onto TSA for quantitative culture. Plates were then incubated at 37° C. and counts taken at 24 hours.
# After an additional 30 minutes, the binary system mixture was then neutralized using 2.4% thiosulfate followed by 1% catalase as described in the Methods Section.
# [2] = test system: Bacillus subtilis (ATCC 19659) spores; assay: Microbicidal activity against Bacillus subtilis spores (suspension test, surviving CFU)
# From the text: as §1
# Suspensions of Bacillus subtilis (ATCC 19659) containing 100% spores, as confirmed by microscopy, were obtained by washing the spun-down cells with 50% ethanol to eliminate the vegetative form. Starting inoculum of approximately 1-3×10^6 CFU was used as in Example 1.
# […] The binary system was neutralized 30 minutes after addition of hydrogen peroxide using 2.4% thiosulfate and 1% catalase as described in Example 1.
# Staphylococcus aureus = assay: Microbicidal activity of commonly used antiseptics against Staphylococcus aureus; conditions: inoculum 1475000 CFU
# Description: (§2) The performance of commonly used antiseptics was tested against Bacillus subtilis and Staphylococcus aureus, following the general procedure of Example 1, to assess the improvement provided by the binary system over these compounds.
# […] Chlorhexidine and IPA were neutralized with 500 microliters of a solution containing 3% Saponin, 3% Tween-80, 0.3% lecithin, and 0.1% histidine. Povidone Iodine was neutralized with 500 microliters of thiosulfate solution (2.4%).
# Bacillus subtilis spores = assay: Microbicidal activity of commonly used antiseptics against Bacillus subtilis spores
# Description: as §2
# After 60 minutes of exposure to the organisms, the individual antiseptics, indicated in Table 15 and Table 16, were neutralized using the corresponding neutralizing solutions prepared as listed below in Materials. Chlorhexidine and IPA were neutralized with 500 microliters of a solution containing 3% Saponin, 3% Tween-80, 0.3% lecithin, and 0.1% histidine. Povidone Iodine was neutralized with 500 microliters of thiosulfate solution (2.4%).
# [3] = test system: Escherichia coli (ATCC 25922); assay: Microbicidal activity against Escherichia coli (suspension test, surviving CFU); conditions: H2O2 88 mM 15 min; inoculum 1630000 CFU
# From the text: as §1, with “hours. […]” for “hours.”
# [4] = H2O2/H+ 0.35 mM 30 min, inoculum 2530000 CFU
# [5] = H2O2/H+ 35.25 mM 30 min, inoculum 1120000 CFU
# [6] = IPA 0.07% 60 min, inoculum 1865000 CFU
# [7] = IPA 0.70% 60 min, inoculum 1865000 CFU
# [8] = IPA 7% 60 min, inoculum 1865000 CFU
# [9] = IPA 70% 60 min, inoculum 1865000 CFU
# [10] = H2O2 0.35 mM 30 min, inoculum 2530000 CFU
# [11] = H2O2 88 mM 5 min, inoculum 1600000 CFU
# [12] = H2O2 88 mM 15 min, inoculum 1600000 CFU
# [13] = H2O2 88 mM 30 min, inoculum 1600000 CFU
# [14] = H2O2 294 mM 5 min, inoculum 1600000 CFU
# [15] = H2O2 294 mM 15 min, inoculum 1600000 CFU
# [16] = H2O2 294 mM 30 min, inoculum 1600000 CFU
# [17] = H2O2 882 mM 5 min, inoculum 1600000 CFU
# [18] = H2O2 882 mM 15 min, inoculum 1600000 CFU
# [19] = H2O2 882 mM 30 min, inoculum 1600000 CFU
# [20] = H2O2 2940 mM 5 min, inoculum 1600000 CFU
# [21] = H2O2 2940 mM 15 min, inoculum 1600000 CFU
# [22] = H2O2 2940 mM 30 min, inoculum 1600000 CFU
# [23] = H2O2 8821 mM 5 min, inoculum 1600000 CFU
# [24] = H2O2 8821 mM 15 min, inoculum 1600000 CFU
# [25] = H2O2 8821 mM 30 min, inoculum 1600000 CFU
# [26] = H2O2 35.25 mM 30 min, inoculum 1120000 CFU
# [27] = H2O2 88 mM 60 min, inoculum 1865000 CFU
# [28] = H2O2 294 mM 60 min, inoculum 1865000 CFU
# [29] = H2O2 882 mM 60 min, inoculum 1865000 CFU
# [30] = H2O2 2940 mM 60 min, inoculum 1865000 CFU
# [31] = H2O2 8821 mM 60 min, inoculum 1865000 CFU
# [32] = PVI 10.00% 60 min, inoculum 1120000 CFU
compound,measurement,setting,value
"OO [H2O2/H+, hydrogen peroxide]",Log 10 (CFU + 1) Survivors,[1]; [4],6.2
same,Log Reduction,[1]; [4],0.2
same,Total Viability (CFU),[1]; [4],1708000 CFU
same,Log 10 (CFU + 1) Survivors,[2]; [5],6.2
same,Log Reduction,[2]; [5],−0.2
same,Total Viability (CFU),[2]; [5],1624000 CFU
"CC(C)O [IPA, Isopropyl Alcohol]",Log 10 (CFU + 1) Survivors,Staphylococcus aureus; IPA 0.07% 15 min,6.3
same,Log Reduction,Staphylococcus aureus; IPA 0.07% 15 min,−0.1
same,Total Viability (CFU),Staphylococcus aureus; IPA 0.07% 15 min,1932000 CFU
same,Log 10 (CFU + 1) Survivors,Staphylococcus aureus; IPA 0.70% 15 min,6.3
same,Log Reduction,Staphylococcus aureus; IPA 0.70% 15 min,−0.1
same,Total Viability (CFU),Staphylococcus aureus; IPA 0.70% 15 min,1988000 CFU
same,Log 10 (CFU + 1) Survivors,Staphylococcus aureus; IPA 7% 15 min,6.3
same,Log Reduction,Staphylococcus aureus; IPA 7% 15 min,−0.1
same,Total Viability (CFU),Staphylococcus aureus; IPA 7% 15 min,1834000 CFU
same,Log 10 (CFU + 1) Survivors,Staphylococcus aureus; IPA 70% 15 min,0.0
same,Log Reduction,Staphylococcus aureus; IPA 70% 15 min,6.2
same,Total Viability (CFU),Staphylococcus aureus; IPA 70% 15 min,0 CFU
same,Log 10 (CFU + 1) Survivors,Bacillus subtilis spores; [6],6.4
same,Log Reduction,Bacillus subtilis spores; [6],−0.1
same,Total Viability (CFU),Bacillus subtilis spores; [6],2422000 CFU
same,Log 10 (CFU + 1) Survivors,Bacillus subtilis spores; [7],6.3
same,Log Reduction,Bacillus subtilis spores; [7],−0.1
same,Total Viability (CFU),Bacillus subtilis spores; [7],2170000 CFU
same,Log 10 (CFU + 1) Survivors,Bacillus subtilis spores; [8],6.4
same,Log Reduction,Bacillus subtilis spores; [8],−0.1
same,Total Viability (CFU),Bacillus subtilis spores; [8],2352000 CFU
same,Log 10 (CFU + 1) Survivors,Bacillus subtilis spores; [9],6.3
same,Log Reduction,Bacillus subtilis spores; [9],0.0
same,Total Viability (CFU),Bacillus subtilis spores; [9],2044000 CFU
same,activity against B. subtilis spores,"Bacillus subtilis spores; any concentration tested, 60 min",did not demonstrate activity
"OO [H2O2, hydrogen peroxide]",Log 10 (CFU + 1) Survivors,[1]; [10],6.2
same,Log Reduction,[1]; [10],0.2
same,Total Viability (CFU),[1]; [10],1764000 CFU
same,Log 10 (CFU + 1) Survivors,[1]; [11],6.2
same,Log Reduction,[1]; [11],0.0
same,Total Viability (CFU),[1]; [11],1694000 CFU
same,Log 10 (CFU + 1) Survivors,[1]; [12],6.3
same,Log Reduction,[1]; [12],−0.1
same,Total Viability (CFU),[1]; [12],2044000 CFU
same,Log 10 (CFU + 1) Survivors,[1]; [13],6.3
same,Log Reduction,[1]; [13],−0.1
same,Total Viability (CFU),[1]; [13],1792000 CFU
same,Log 10 (CFU + 1) Survivors,[1]; [14],6.1
same,Log Reduction,[1]; [14],0.1
same,Total Viability (CFU),[1]; [14],1288000 CFU
same,Log 10 (CFU + 1) Survivors,[1]; [15],6.1
same,Log Reduction,[1]; [15],0.1
same,Total Viability (CFU),[1]; [15],1190000 CFU
same,Log 10 (CFU + 1) Survivors,[1]; [16],1.3
same,Log Reduction,[1]; [16],4.9
same,Total Viability (CFU),[1]; [16],21 CFU
same,Log 10 (CFU + 1) Survivors,[1]; [17],4.1
same,Log Reduction,[1]; [17],2.1
same,Total Viability (CFU),[1]; [17],12040 CFU
same,Log 10 (CFU + 1) Survivors,[1]; [18],0.0
same,Log Reduction,[1]; [18],6.2
same,Total Viability (CFU),[1]; [18],0 CFU
same,Log 10 (CFU + 1) Survivors,[1]; [19],0.0
same,Log Reduction,[1]; [19],6.2
same,Total Viability (CFU),[1]; [19],0 CFU
same,Log 10 (CFU + 1) Survivors,[1]; [20],0.0
same,Log Reduction,[1]; [20],6.2
same,Total Viability (CFU),[1]; [20],0 CFU
same,Log 10 (CFU + 1) Survivors,[1]; [21],0.0
same,Log Reduction,[1]; [21],6.2
same,Total Viability (CFU),[1]; [21],0 CFU
same,Log 10 (CFU + 1) Survivors,[1]; [22],0.0
same,Log Reduction,[1]; [22],6.2
same,Total Viability (CFU),[1]; [22],0 CFU
same,Log 10 (CFU + 1) Survivors,[1]; [23],0.0
same,Log Reduction,[1]; [23],6.2
same,Total Viability (CFU),[1]; [23],0 CFU
same,Log 10 (CFU + 1) Survivors,[1]; [24],0.0
same,Log Reduction,[1]; [24],6.2
same,Total Viability (CFU),[1]; [24],0 CFU
same,Log 10 (CFU + 1) Survivors,[1]; [25],0.0
same,Log Reduction,[1]; [25],6.2
same,Total Viability (CFU),[1]; [25],0 CFU
same,microbicidal activity (kill of inoculum),"[1]; highest concentration of hydrogen peroxide used in the binary system, tested alone",completely ineffective and produced no kill
same,microbicidal activity (kill of inoculum),"[1]; hydrogen peroxide 88 mM, within 30 minutes",no microbicidal activity; also recorded: not microbicidal
same,microbicidal activity (kill of inoculum),"[1]; hydrogen peroxide 8821 and 2940 mM, within 5 minutes, 6.2 log10 CFU inoculum",complete kill
same,microbicidal activity (kill of inoculum),[1]; hydrogen peroxide intermediate concentrations,partial kill
same,Log 10 (CFU + 1) Survivors,[3],5.8
same,Log Reduction,[3],0.4
same,Total Viability (CFU),[3],588000 CFU
same,Log 10 (CFU + 1) Survivors,[2]; [26],6.1
same,Log Reduction,[2]; [26],−0.1
same,Total Viability (CFU),[2]; [26],1358000 CFU
same,Log 10 (CFU + 1) Survivors,[2]; [27],6.3
same,Log Reduction,[2]; [27],0.0
same,Total Viability (CFU),[2]; [27],1974000 CFU
same,Log 10 (CFU + 1) Survivors,[2]; [28],6.2
same,Log Reduction,[2]; [28],0.1
same,Total Viability (CFU),[2]; [28],1484000 CFU
same,Log 10 (CFU + 1) Survivors,[2]; [29],5.3
same,Log Reduction,[2]; [29],1.0
same,Total Viability (CFU),[2]; [29],200200 CFU
same,Log 10 (CFU + 1) Survivors,[2]; [30],2.8
same,Log Reduction,[2]; [30],3.5
same,Total Viability (CFU),[2]; [30],588 CFU
same,Log 10 (CFU + 1) Survivors,[2]; [31],0.0
same,Log Reduction,[2]; [31],6.3
same,Total Viability (CFU),[2]; [31],0 CFU
same,microbicidal activity (kill of inoculum),"[2]; hydrogen peroxide 8821 mM, within 60 minutes, 6.3 log10 CFU inoculum",complete kill
same,microbicidal activity (kill of inoculum),"[2]; hydrogen peroxide 294 to 88 mM, within 60 minutes",no microbicidal activity
same,microbicidal activity (kill of inoculum),"[2]; hydrogen peroxide 2940 and 882 mM, 60 minutes",partial kill
Povidone Iodine [PVI],Log 10 (CFU + 1) Survivors,Staphylococcus aureus; PVI 10.00% 15 min,0.0
same,Log Reduction,Staphylococcus aureus; PVI 10.00% 15 min,6.2
same,Total Viability (CFU),Staphylococcus aureus; PVI 10.00% 15 min,0 CFU
same,Log 10 (CFU + 1) Survivors,Bacillus subtilis spores; [32],5.3
same,Log Reduction,Bacillus subtilis spores; [32],0.8
same,Total Viability (CFU),Bacillus subtilis spores; [32],189000 CFU

# From patent US20070264355A1, “BINARY COMPOSITIONS AND METHODS FOR STERILIZATION” (Binary, LLC, priority 2005, published 2007)
